Legend:
[1] = Solubility (physical and chemical properties); type: physicochemical
Description: (23)/(D) [formula] : -74° (c = 1.8, CHCl₃) (8) Ultraviolet Absorption Spectrum: end absorption (9) Infrared Absorption Spectrum: [drawing 4] 3570, 3500, 2940, 2880, 2820, 1740, 1710, 1700, 1640, 1460, 1450, 1380, 1350, 1320, 1280, 1230, 1190, 1170, 1140, 1100, 1090, 1050, 1040, 1000, 990, 940, 910 cm⁻¹ (10) ¹³C Nuclear Magnetic Resonance Spectrum: δ(ppm, CDCl₃, 100MHz): [formula] [formula] (11) ¹H Nuclear Magnetic Resonance Spectrum: the chart of which being shown in Figure 3, (12) Thin Layer Chromatography: […]

[2] = test system: Aspergillus niger IFO 4417; assay: Antimicrobial activity against fungi, serial agar dilution method in Sabouraud agar; type: cell-based; design: unit not given here; conditions: 30°C for 24 hours
Description: Antimicrobial activities of the FR-901154 and FR-901155 Substances Antimicrobial activities of the FR-901154 and FR-901155 substances against various fungi were determined by a serial agar dilution method in a Sabouraud agar. Minimum inhibitory concentrations (MIC) were expressed in terms of »g/ml after incubation at 30°C for 24 hours. […]

Solubility ([1]; methanol, ethanol, acetone, ethyl acetate, chloroform, diethyl ether, benzene and acetonitrile)	Solubility ([1]; n-hexane and petroleum ether)	Solubility ([1]; water)	MIC Value [2]	Structure (SMILES)
Soluble	Sparingly Soluble	Insoluble	–	CCCC1C=C(C)CC(C)CC(OC)C2OC(O)(C(=O)C(=O)N3CCCCC3C(=O)OC(C(C)=CC3CCC(O)C(OC)C3)C(C)C(O)CC1=O)C(C)CC2OC (stereo not shown) [FR-901156, 1,14-dihydroxy-12-[2-(4-hydroxy-3-methoxycyclohexyl)-1-methylvinyl]-23,25-dimethoxy-13,19,21,27-tetramethyl-17-propyl-11,28-dioxa-4-azatricyclo[22.3.1.0^4,9]octacos-18-ene-2,3,10,16-tetraone]
–	–	–	0.025	C=CCC1/C=C(\C)CC(C)CC(OC)C2OC(O)(C(=O)C(=O)N3CCCCC3C(=O)OC(/C(C)=C/C3CCC(O)C(O)C3)C(C)C(O)CC1=O)C(C)CC2OC (stereo not shown) [FR-901154]
